Assay type in all cases: in vivo
Test [1] relates to Alopecurus myosuroides. Briefly: Glasshouse assay for herbicidal activity, post-emergence, ALOMY. As to conditions: Alopecurus myosuroides, 312 h, 250 g/ha, visual 13 days after application, 100%=total damage, read-out: Percentage phytotoxicity ALOMY. The procedure: (§1) Seeds of a variety of test plant species were sown in standard soil ** in pots. After cultivation for one day (pre-emergence) or after 8 days cultivation (post-emergence) under controlled conditions in a glasshouse (at 24/16° C., day/night; 14 hours light; 65% humidity), the plants were sprayed with an aqueous spray solution derived from the formulation of the technical active ingredient (the test herbicide) in acetone/water (50:50) solution containing 0.5% Tween 20 (polyoxyethylene sorbitan monolaurate, CAS Reg. No. 9005-64-5). The test plants were then grown on under controlled conditions in a glasshouse (at 24/16° C., day/night; 14 hours light; 65% humidity) and watered twice daily. 13 Days after application of the test herbicide, for pre- and post-emergence, the test was evaluated visually for percentage phytotoxicity to each plant (where 100%=total damage to plant; 0%=no damage to plant). Generally, each test herbicide is only tested on 1 plant per plant species for each application rate tested and for each application timing. The “standard soil” in Biological Example 1 is usually a “sand” or “sandy loam” type of soil. Biological Example 1—Post-Emergence Application—Herbicidal Activity Results (Percentage Phytotoxicity) Dicotyledonous weeds: ABUTH=Abutilon theophrasti; AMARE=Amaranthus retroflexus. Grassy monocotyledonous weeds: SETFA=Setaria faberi; ALOMY=Alopecurus myosuroides; ECHCG=Echinochloa crus-galli; ZEAMX=Zea mays (corn, maize, e.g. volunteer corn).

The test system of test [2] is Amaranthus retroflexus. Briefly: Glasshouse assay for herbicidal activity, post-emergence, AMARE. As to conditions: Amaranthus retroflexus, 312 h, 250 g/ha, visual 13 days after application, 100%=total damage, read-out: Percentage phytotoxicity AMARE. The procedure:
as §1

Test [3] concerns Abutilon theophrasti. The test is described as follows: Glasshouse assay for herbicidal activity, post-emergence, ABUTH. As to conditions: Abutilon theophrasti, 312 h, 250 g/ha, visual 13 days after application, 100%=total damage, read-out: Percentage phytotoxicity ABUTH. The procedure:
as §1

For test [4], the system named is Echinochloa crus-galli. The test is described as follows: Glasshouse assay for herbicidal activity, post-emergence, ECHCG. As to conditions: Echinochloa crus-galli, 312 h, 250 g/ha, visual 13 days after application, 100%=total damage, read-out: Percentage phytotoxicity ECHCG. The procedure:
as §1

Test [5] has as its system Setaria faberi. The test is described as follows: Glasshouse assay for herbicidal activity, post-emergence, SETFA. As to conditions: Setaria faberi, 312 h, 250 g/ha, visual 13 days after application, 100%=total damage, read-out: Percentage phytotoxicity SETFA. The procedure: as §1
Test [6] has as its system Zea mays (corn, maize, e.g. volunteer corn). The test is described as follows: Glasshouse assay for herbicidal activity, post-emergence, ZEAMX. As to conditions: Zea mays, 312 h, 250 g/ha, visual 13 days after application, 100%=total damage, read-out: Percentage phytotoxicity ZEAMX. The procedure: as §1

Structures are written as SMILES.

Regarding `CC#Cc1ccc(C2=C(OC(=O)SC(C)C)C3CCC(C3)C2=O)c(OC)c1` (stereo not drawn) [Compound P15], the pest or weed control at 250 g/ha in test [1] stood at 90%; in test [2], 10%; in test [3], 70%; in test [4], 100%; in test [5] it was 100%; in test [6] it was 100%.

Consider `CC#Cc1ccc(C2=C(OS(C)(=O)=O)C3CCC(C3)C2=O)c(OC)c1` (stereo not drawn) [Compound P16], for which the pest or weed control at 250 g/ha in test [1] is 80%; in test [2] it was 40%; in test [3], 40%; in test [4], 90%; in test [5] it was 70%; in test [6], 100%.

`CC#Cc1ccc(C2=C(OS(=O)(=O)CC)C3CCC(C3)C2=O)c(OC)c1` (stereo not drawn) [Compound P17]: the pest or weed control at 250 g/ha was found to be 90% in test [1]; 0% in test [2]; 70% in test [3]; 90% in test [4]; 80% in test [5]; 100% in test [6].

For `C=CC(=O)OC1=C(c2ccc(C#CC)cc2OC)C(=O)C2CCC1C2` (stereo not drawn) [Compound P18], the pest or weed control at 250 g/ha in test [1] amounted to 90%; in test [2], 30%; in test [3] it was 70%; in test [4] it was 100%; in test [5], 90%; in test [6], 100%.
